The values that follow come from ChEMBL document CHEMBL6153109, “Switching Roles─Exploring Concentration-Dependent Agonistic versus Antagonistic Behavior of Integrin Ligands” (J Med Chem, 2025).

The source made the active and inactive calls. No cut-off for these calls is given here.

Series [1] is described as follows: Drug uptake in human RKO cells overexpressing integrin alpha5beta1 at 1 uM measured at 60 to 300 mins by Hoechst 33342 staining based fluorescence analysis. In kind it is ADME, cell-based. To be noted: time 60-300 min.
A short description of series [2]: Drug localization in cell membrane of human RKO cells overexpressing integrin alpha5beta1 at 1 uM measured within 3 mins by CellMask green staining based fluorescence analysis. Conditions: 0.05 h. It counts as ADME, cell membranes.
Series [3] in a line: Drug uptake in human M21 cells overexpressing integrin alphaVbeta3 at 1 uM measured at 60 to 300 mins by Hoechst 33342 staining based fluorescence analysis. It counts as ADME, cell-based. To be noted: m21, 1 µM, time 60-300 min.
Series [4] in a line: Drug localization in cell membrane of human RKO cells overexpressing integrin alpha5beta1 at 1 uM measured at 30 mins by CellMask green staining based fluorescence analysis. It counts as ADME, cell membranes. To be noted: 0.5 h.
The test system of another series is OV-MZ-6. Kind of series: Inhibition of cell migration in human OV-MZ-6 cells expressing integrin alpha5beta1 assessed as delay in wound gap closure at 1 to 1000 nM measured after 24 to 72 hrs by wound scratch assay relative to control. It counts as functional, cell-based. Conditions: dose 1-1000 nM, time 24-72 hrs.
In series [5] the test system is M21. Kind of series: Inhibition of cell adhesion in human M21 cells expressing integrin alphaVbeta3 at 1 uM measured after 48 hrs by microscopic imaging analysis. It counts as functional, cell-based.
Series [6] can be described thus: Inhibition of cell migration in human OV-MZ-6 cells expressing integrin alpha5beta1 assessed as cell coverage at 1 uM measured within 72 hrs by wound scratch assay relative to control. In kind it is functional. Also on record: scale not given: the % may be the effect or the level left.
Series [7] has as its system M21. The series can be described thus: Inhibition of cell migration in human M21 cells expressing integrin alphaVbeta3 assessed as delay in wound gap closure at 1 uM measured after 72 hrs by wound scratch assay. In kind it is functional, cell-based.
The subject of series [8] is M21. Kind of series: Inhibition of cell migration in human M21 cells expressing integrin alphaVbeta3 assessed as cell coverage at 1 uM measured within 72 hrs by wound scratch assay (reference value: 95 %). In kind it is functional. The arrangement: scale not given: the % may be the effect or the level left.
Series [9] has as its system M21. Kind of series: Inhibition of cell adhesion in human M21 cells expressing integrin alphaVbeta3 at 1 nM measured after 48 hrs by microscopic imaging analysis. It counts as functional, cell-based.
In series [10] the target is T1, Integrin alpha-5/beta-1 (Homo sapiens, UniProt P05556+P08648). The series can be described thus: Agonist activity at integrin alpha5beta1 in human OV-MZ-6 cells assessed as increase in FAK expression at 1 to 1000 nM measured after 5 to 60 mins by Western blot analysis. In kind it is cell-based. Conditions: dose 1-1000 nM, time 5-60 min.
Series [11] deals with T1, Integrin alpha-5/beta-1. The series can be described thus: Agonist activity at integrin alpha5beta1 in human OV-MZ-6 cells assessed as fold increase in p-ERK1/2 expression at 1 uM incubated for 24 hrs by Western blot analysis. It counts as cell-based. Conditions: filed as agonist. In general terms: Immunoblotting shows a protein as a band on a membrane.
In series [12] the test system is M21. The series can be described thus: Inhibition of cell migration in human M21 cells expressing integrin alphaVbeta3 assessed as delay in wound gap closure at 1 nM measured after 9 to 72 hrs by wound scratch assay. In kind it is functional, cell-based. Conditions: time 9-72 hrs.
The target of series [13] is T1, Integrin alpha-5/beta-1. Kind of series: Agonist activity at integrin alpha5beta1 in human OV-MZ-6 cells assessed as increase in p-FAK expression at 1 nM measured after 30 to 60 mins by Western blot analysis. It counts as cell-based. To be noted: time 30-60 min.

`Cc1cc(OCCCNC(=O)CCCCCNC(=O)CCCCC[N+]2=C(/C=C/C=C/C=C3/N(C)c4ccc5ccccc5c4C3(C)C)C(C)(C)c3c2ccc2ccccc32)cc(C)c1C(=O)N[C@@H](CNC(=O)CNC(=O)c1cccc(NC(=N)N)c1)C(=O)O`: the Drug uptake entry is reported as “Active” in [1], “Active” in series [2], “Not_active” in series [3] and “Active” in series [4].
For `CC(C)[C@H]1C(=O)N[C@@H](CCCNC(=N)N)C(=O)NCC(=O)N[C@@H](CC(=O)O)C(=O)N[C@H](Cc2ccccc2)C(=O)N1C` [CILENGITIDE], the inhibition entry in the series on OV-MZ-6, in the series with M21 [9] and with M21 [12] was “inactive” throughout. The inhibition result in the series with M21 [5] and with M21 [7] was “Active” each time. In addition, the Activity in series [6] amounted to 60%; with M21 [8] it was 40%. For the same compound, the outcome on Integrin alpha-5/beta-1 [10] and at Integrin alpha-5/beta-1 [13] was inactive. At Integrin alpha-5/beta-1 [11], the fold change (FC) stood at 3.1.
